Laboratory results reported in PubChem BioAssay AID1963447 (Molecular Pharmacology Branch, DTP, NCI, 2024).
Values joined by “and” are separate entries in the source; they are usually repeats but may differ in a detail not shown here. Identical values can stand only once.

Tested on: 885512-296-R-J2-PDC complex spheroid growth, % test/control
Test: Anticancer human tumor 885512-296-R-J2-PDC patient-derived breast carcinoma cell line growth inhibition [Asc]
Conditions: for viability, T/C: stronger effect = lower value
Protocol: Multicellular complex tumor spheroid response to apoptosis pathway targeting inhibitors Alrizomadlin, Pelcitoclax, and Dasminapant in combination with a variety of drugs and investigational agents in selected tumor cell lines
The MDM2 inhibitor alrizomadlin, the Bcl-2/Bcl-xL inhibitor pelcitoclax, and the IAPs inhibitor dasminapant were evaluated both individually and in combination with standard of care and investigational anticancer small molecules within a complex spheroid model of solid tumors. . Complex spheroids include a stromal component modeled by human endothelial cells (HUVEC) and fibroblasts modeled by human mesenchymal stem cells (MSCs). The concentration ranges selected for each drug and investigational agent were based upon clinically achievable concentrations if the clinical Cmax of the agent was known.
Compounds. The drugs and investigational agents: alrizomadlin (APG-115; NSC831270), pelcitoclax (APG-1252; NSC835773), dasminapant (APG-1387;NSC834197), TAK-243 (NSC785004), copanlisib (NSC809693), olaparib (NSC753686), talazoparib (NSC767125), cobimetinib (NSC 768068), eltanexor (KPT-8602, NSC 794443), abemaciclib (NSC 768073), sotorasib (NSC818433), adagrasib (NSC 831453), MRTX-1133 (NSC 836407), Iadademestat (ORY1001, NSC 806812), and RMC-4630 (NSC839698), were obtained from the NCI Developmental Therapeutics Program Chemical Repository. The FDA-approved anticancer drug set is available from the Developmental Therapeutics Program at https://dtp.cancer.gov/organization/dscb/obtaining/available plates.htm. […] The stock solutions were prepared in dimethyl sulfoxide (DMSO, Sigma-Aldrich, St. Louis, MO, cat. D2650) at 800-fold the tested concentration and stored at -70 degrees C prior to their use. All drugs and investigational agents were tested over a range starting from a high concentration at or near the clinical Cmax and decreasing in half-log increments. If the clinical Cmax for an agent had not been determined, the highest concentration tested was 10 microM.
The patient-derived cancer (PDC) cell lines include five colon adenocarcinomas: 186277-243-T-J2-PDC, 616215-338-R-J1-PDC, 439559-082-T-J2-PDC, 463943-066-T-J2-PDC, and 519858-162-T-J1-PDC; three pancreatic carcinomas: 323965-272-R-J2-PDC, 521955-158-R6-J3-PDC, and 521955-158-R2-J5-PDC; two uterine sarcomas: 327498-152-R-J2-PDC and 993429-296-R-J1-PDC; two rhabdomyosarcomas: 755483-174-R-J1-PDC and 772245-204-R-J1-PDC; two soft tissue sarcomas: 126254-015-R-J1-PDC and 494315-158-R-J1-PDC; two malignant fibrous histiocytomas: 317291-083-R-J1-PDC and 596521-263-R-J1-PDC; two breast carcinomas: 171881-019-R-J1-PDC and 885512-296-R-J2-PDC; and one ovarian carcinoma: 6556581-035-R-J-PDC were obtained from the NCI PDMR, (https://pdmr.cancer.gov). The established cell lines HSSY-2 synovial sarcoma (RRID:CVCL 8719), SYO-1 synovial sarcoma (RRID:CVCL_7146), MPNST malignant peripheral neural sheath tumor were obtained from the Sloan Kettering Institute. The following established cell lines were purchased from the American Type Culture Collection (ATCC, Manassas, VA), Sor the received from the NCI repository:, PANC-1 pancreatic carcinoma (CRL-1469, RRID:CVCL_0480), OVCAR-5 ovarian carcinoma (RRID:CVCL_1628), OVCAR-8 ovarian carcinoma (RRID:CVCL_1629), , MCF-7 breast carcinoma (CRL-12584, RRID:CVCL_0031), MDA-MB-231 breast carcinoma (CRL-12532, RRID:CVCL_0062), NCI-H1876 small cell lung carcinoma (CRL-5902, RRID:CVCL_1503), NCI-H510A small cell lung carcinoma (HTB-184, RRID:CVCL_1565), NCI-H1417 (CRL-5869, RRID:CVCL_1469), and NCI-H196 small cell lung carcinoma (CRL-5823, RRID:CVCL_1509). Dr. Peter Houghton (Greehey Children's Cancer Research Institute, University of Texas Health Science Center, San Antonio, TX) provided Rh-18 rhabdomyosarcoma (RRID:CVCL_1659). Pooled donor human umbilical vein endothelial cells (HUVEC, Lonza, cat. CC-2519) and human mesenchymal stem cells (hMSC, Lonza, cat. PT-2501) were purchased from Lonza (Walkersville, MD).
Cell Culture. […]
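Further: spheroids exposed to compounds for seven days.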
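Wherever viability, T/C is given: 100% = DMSO vehicle control wells.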

Row | Structure (SMILES) | IC50 (curve of compound) | viability, T/C (compound 0.0316 µM) | viability, T/C (compound 0.1 µM) | viability, T/C (compound 0.316 µM) | viability, T/C (compound 1 µM) | viability, T/C (compound 10 µM) | viability, T/C (compound 0.00316 µM) | viability, T/C (compound 0.01 µM) | other results
1 | CNC(C)C(=O)NC1CN(S(=O)(=O)c2cccc(S(=O)(=O)N3CCC4CCC(C(=O)NC(c5ccccc5)c5ccccc5)N4C(=O)C(NC(=O)C(C)NC)C3)c2)CCC2CCC(C(=O)NC(c3ccccc3)c3ccccc3)N2C1=O (stereo not given) | > 1000 nM | – | – | – | – | – | 84.1% and 81% | – | IC50 (compound alone, run of 10/03/2022): > 1000 nM
2 | COc1c(OCCCN2CCOCC2)ccc2c3n(c(=NC(=O)c4cnc(N)nc4)nc12)CCN3 | 249 nM and 255 nM and 370 nM | 86.8% and 80.5% and 89.4% | 74.3% and 76% and 89% | 43.6% and 43.9% and 56.3% | 6.01% and 5.98% and 9.51% | – | 99.3% and 90.1% and 99% | 100% and 92.6% and 92% | –
3 | Cc1c(S(C)(=O)=O)c(-c2cc(F)cc(N3CCN(c4ccc(NS(=O)(=O)c5ccc(NC(CCN6CCC(C(=O)OCCCP(=O)(O)O)CC6)CSc6ccccc6)c(S(=O)(=O)C(F)(F)F)c5)cc4)CC3)c2)c(-c2ccc(Cl)cc2)n1C(C)C (stereo not given) | – | – | 84.8% [middle of 14 runs] | 86.5% [middle of 14 runs] | 88.8% [middle of 14 runs] | 114% [middle of 14 runs] | – | – | IC50 (compound alone, run of 09/27/2022): > 10000 nM
4 | Cc1nc(N2CCC3(CC2)COC(C)C3N)c(CO)nc1Sc1ccnc(N)c1Cl (stereo not given) | 408 nM and 453 nM and 373 nM | – | – | – | – | – | – | – | viability, T/C (compound 0.00949 µM): 82.5% and 83.1% and 76%; viability, T/C (compound 0.03 µM): 68.2% and 68.5% and 70.9%; viability, T/C (compound 0.0949 µM): 59.3% and 59.5% and 63.1%; viability, T/C (compound 0.3 µM): 54.2% and 53% and 54%; viability, T/C (compound 0.949 µM): 45.2% and 48% and 39.2%; viability, T/C (compound 3 µM): 36.6% and 38.9% and 36.2%
5 | NC(=O)C(=Cn1cnc(-c2cc(C(F)(F)F)cc(C(F)(F)F)c2)n1)c1cncnc1 | 45.7 nM and 48.2 nM and 54.2 nM | – | – | – | – | – | – | – | viability, T/C (compound 0.000949 µM): 87.5% and 102% and 84.6%; viability, T/C (compound 0.003 µM): 85.7% and 110% and 93.3%; viability, T/C (compound 0.00949 µM): 101% and 108% and 96.6%; viability, T/C (compound 0.03 µM): 74.1% and 79.4% and 91.7%; viability, T/C (compound 0.0949 µM): 8.08% and 8.06% and 10.7%; viability, T/C (compound 0.3 µM): 3% and 0.88% and 1.21%
6 | NC1CCC(NC2CC2c2ccccc2)CC1 (stereo not given) | > 100 nM | 130% and 120% and 127% | 122% and 110% and 125% | – | – | – | 118% and 117% and 122% | 127% and 125% and 122% | viability, T/C (compound 0.000316 µM): 128% and 119% and 118%; viability, T/C (compound 0.001 µM): 129% and 116% and 126%

Continued, in another order:

Row | IC50 (curve of compound) | Structure (SMILES) | viability, T/C (compound 0.0316 µM) | viability, T/C (compound 0.1 µM) | viability, T/C (compound 0.316 µM) | viability, T/C (compound 1 µM) | viability, T/C (compound 10 µM) | viability, T/C (compound 0.00316 µM) | viability, T/C (compound 0.01 µM) | other results
7 | > 10000 nM | C#Cc1c(F)ccc2cc(O)cc(-c3ncc4c(N5CC6CCC(C5)N6)nc(OCC56CCCN5CC(F)C6)nc4c3F)c12 (stereo not given) | 93.6% and 96.8% and 95.3% | 103% (2×) and 91.5% | 89.2% and 72.3% and 99.9% | 99.7% and 72.6% and 93.5% | 97.2% and 80.2% and 71.9% | – | – | viability, T/C (compound 3.16 µM): 101% and 93.8% and 87.5%
8 | 2040 nM and 2410 nM and 3230 nM | C=C(F)C(=O)N1CCN(c2nc(OCC3CCCN3C)nc3c2CCN(c2cccc4cccc(Cl)c24)C3)CC1CC#N (stereo not given) | 81.9% and 107% and 97.2% | 97% and 114% and 90.5% | 104% and 102% and 94.4% | 97.8% and 113% and 110% | 0.17% and 0.15% and 0.14% | – | – | viability, T/C (compound 3.16 µM): 22% and 31.8% and 50.9%
9 | > 10000 nM | C=CC(=O)N1CCN(c2nc(=O)n(-c3c(C)ccnc3C(C)C)c3nc(-c4c(O)cccc4F)c(F)cc23)C(C)C1 (stereo not given) | 90.3% and 85.9% and 94.9% | 104% and 108% and 86.1% | 108% and 104% and 90.2% | 108% and 124% and 103% | 60.6% and 59.6% and 78.4% | – | – | viability, T/C (compound 3.16 µM): 77.3% and 101% and 95.2%
10 | 2830 nM and > 3000 nM | CCN1C(C(=O)NC23CCC(C(=O)O)(CC2)CC3)C(c2cccc(Cl)c2F)C2(C(=O)Nc3cc(Cl)ccc32)C12CCCCC2 (stereo not given) | – | – | – | – | – | – | – | viability, T/C (compound 0.00949 µM): 94.5% and 78.9%; viability, T/C (compound 0.0949 µM): 95.6% [middle of 15 runs]; viability, T/C (compound 0.949 µM): 71.9% [middle of 15 runs]; viability, T/C (compound 3 µM): 46.6% [middle of 15 runs]
11 | > 1000 nM | CCN1CCN(Cc2ccc(Nc3ncc(F)c(-c4cc(F)c5nc(C)n(C(C)C)c5c4)n3)nc2)CC1 | 92.8% and 77.8% and 104% | 80.7% and 77.2% and 93% | 79.6% and 71.2% and 79.3% | 61.1% and 65% and 73.3% | – | 89.4% and 83.8% and 88.3% | 107% and 91.6% and 85.9% | –
12 | 32.3 nM and 43.3 nM and 42.2 nM | Cn1ncnc1[C@H]1c2n[nH]c(=O)c3cc(F)cc(c23)N[C@@H]1c1ccc(F)cc1 | 53.5% and 54.3% and 57.9% | 31.4% and 38.2% and 34.5% | – | – | – | 71.1% and 82.5% and 93.2% | 70.2% and 73% and 67.9% | viability, T/C (compound 0.000316 µM): 101% and 86.7% and 96.2%; viability, T/C (compound 0.001 µM): 86.5% and 84.3% and 90.5%
13 | 5070 nM and 4970 nM and 5400 nM | O=C(c1cc(Cc2n[nH]c(=O)c3ccccc23)ccc1F)N1CCN(C(=O)C2CC2)CC1 | 99.2% and 96.5% and 98% | 113% and 117% and 108% | 102% and 115% and 97.6% | 98.8% and 98.3% and 107% | 19.2% and 17.5% and 20.8% | – | – | viability, T/C (compound 3.16 µM): 71.3% and 71.5% and 75.3%
14 | 255 nM and 113 nM and 102 nM | O=C(c1ccc(F)c(F)c1Nc1ccc(I)cc1F)N1CC(O)([C@@H]2CCCCN2)C1 | 73.9% and 62.5% and 68.7% | 69.7% and 54.8% and 47.7% | 45.6% and 36.5% and 35.7% | 18.4% and 15.1% and 17.1% | – | 94% and 88.7% and 94.3% | 89.3% and 77.1% and 88.9% | –
